In brackets after ≈: the same amount, converted by molar mass. Read-outs that look alike come from different tables or passages of the source.
Assays:
[1] = FaSSIF and FeSSIF solubility; format: physicochemical
Experimental: 1. Experimental and Computational Methods
Fasted and Fed State Simulated Intestinal Fluid (FaSSIF and FeSSIF) Solubility.
Suspensions of amorphous 1 and 2 were stirred at 37 °C in FaSSIF and FeSSIF for 24 h ± 4 h
prior to filtration and analysis of the filtrate. The solubility was determined via HPLC-MS
analysis of the filtrate using a calibration curve (external standard). […]

[2] = EPSA (experimental polar surface area, chromatographic); format: physicochemical
Experimental: 1. Experimental and Computational Methods […]
EPSA. EPSA retention times for 1 and 2 were determined at Sygnature Discovery. In brief, the
EPSA assay was performed on a Waters Acquity UPC2 system equipped with a PDA and a
QDa detector, using a Phenomenex Chirex (S)-VAL and (R)-NEA LC column (50 x 4.6 mm).
A gradient of MeOH, containing 20 mM ammonium formate, in CO2 was used as eluent.

[3] = set-up: method as in PMID 39693386; details: logarithm of Pe; Data reported recently; cited from earlier work
[4] = set-up: method as in PMID 39693386; details: Data reported recently; cited from earlier work
[5] = FaSSIF, pH 6.5, 37 °C, read-out: Solubility FaSSIF, pH 6.5
[6] = FeSSIF, pH 5.0, 37 °C, read-out: Solubility FeSSIF, pH 5.0

SMILES | solubility at 24 h [1, 5] | solubility at 24 h [1, 6] | EPSA [2] | PAMPA Log[Pe (cm/s)] [3] | Solubility PBS, pH 6.5 [4]
Cc1ncsc1-c1ccc(CNC(=O)[C@@H]2C[C@@H](O)CN2C(=O)[C@@H](NC(=O)CCCCCCCCOc2cnc3c(C4CCN(C(=O)c5ccc(OC(F)(F)F)cc5)CC4)ncnc3c2)C(C)(C)C)cc1 [PROTAC 1] | 18.6 µM (≈ 18.4 µg/mL) | 174 µM (≈ 172 µg/mL) | 93.1 A^2 | -8.3 log10(Pe in cm/s) | < 0.1 μM
Cc1ncsc1-c1ccc(CNC(=O)[C@@H]2C[C@@H](O)CN2C(=O)[C@@H](NC(=O)CCOCCOCCOc2cnc3c(C4CCN(C(=O)c5ccc(OC(F)(F)F)cc5)CC4)ncnc3c2)C(C)(C)C)cc1 [PROTAC 2] | 53.2 µM (≈ 52.7 µg/mL) | 349 µM (≈ 346 µg/mL) | 91.5 A^2 | -5.4 log10(Pe in cm/s) | –
